In patent US7935726B1, “Tricyclic pyrones” (Kansas State University Research Foundation, priority 1999, dated 2011):
Values belong to the compound of their own block, whether it stands above or below them.

How the values were obtained:
[1] = biological target: T1, Human aldose reductase (AR) (Homo sapiens, UniProt P15121); assay: human AR inhibition assay (enzyme assay, NADPH absorption at 340 nm); assay type: biochemical; settings: Table 4
T1 construct: made in house; host or cells: E. coli
Method: Human aldose reductase (AR) was obtained from overexpression of the human AR gene in an E coli system and was purified by column chromatography using a talon metal affinity column and eluted with a gradient mixture of Tris, NaCl buffer and imidazole solution. The human AR inhibition assay was conducted as follows. In a sample cuvette, 25 mM of D-xylose (75 mg/mL) and 0.15 mM of reduced nicotinamide adenine dinucleotide phosphate (NADPH) (4 mg/mL), and various amount of the inhibitor [in PBS (phosphate buffer saline) solution; the concentration of the inhibitor was determined using UV spectroscopy based on εmax at λmax of the drug] in 700 uL of PBS (a solution made of 1.44 g of Na2HPO4, 0.24 g KH2PO4, 0.2 g KCl, and 8 g NaCl in 1 L of distilled water) buffer (pH=6.1) solution and 200 uL of the AR enzyme (a final volume of 1 mL was obtained). The intensity of absorption of NADPH (λmax=340 nm) was measured. When xylose is reduced to xylitol, NADPH is converted into NADP and the absorption at 340 nm decreases. When AR is inhibited by the drug, the absorption at 340 nm of NADPH remains unchanged. Each assay was repeated three times and an average IC50 value was obtained.

ACAT = assay: inhibition of ACAT; assay type: biochemical
MC65 cells = assay: protection from APP C99-induced cell death in MC65 cells; assay type: cell-based; settings: for EC50: MC65 cells in the absence of tetracycline; for protection of MC65 cells from death (in words): MC65 cells conditionally expressing partial APP fusion protein, absence of tetracycline
From the text: The reported procedures for the inhibitory activities of ACAT (Tomoda, H.; Nishida, H.; Masuma, R.; Cao, J.; Okuda, S.; Omura, S. J. Antibiot. 1991, 44, 136-143), CETP (Tomoda, H.; Tabata, N.; Masuma, R.; Si, S.-Y.; Omura, S. J. Antibiot. 1998, 51, 618-623; D. H. Hua et al. Tetrahedron 2003, 59, 4795-4803), L1210 tumor cells (Perchellet, E. M.; Ladesich, J. B.; Magill, M. J.; Chen, Y.; Hua, D. H.; Perchellet, J. P. Anti-Cancer Drugs 1999, 10, 489-504), and APP C99-induced cell death (Jin, L.-W.; Hua, D. H.; Shie, F.-S.; Maezawa, I.; Sopher, B.; Martin, G. M. J. Mol. Neurosci. 2002, 19, 57-61) were followed. […]

CETP = biological target: T2, CETP (Homo sapiens, UniProt P11597); assay: inhibition of CETP; assay type: biochemical
T2 sequence (P11597 18-493): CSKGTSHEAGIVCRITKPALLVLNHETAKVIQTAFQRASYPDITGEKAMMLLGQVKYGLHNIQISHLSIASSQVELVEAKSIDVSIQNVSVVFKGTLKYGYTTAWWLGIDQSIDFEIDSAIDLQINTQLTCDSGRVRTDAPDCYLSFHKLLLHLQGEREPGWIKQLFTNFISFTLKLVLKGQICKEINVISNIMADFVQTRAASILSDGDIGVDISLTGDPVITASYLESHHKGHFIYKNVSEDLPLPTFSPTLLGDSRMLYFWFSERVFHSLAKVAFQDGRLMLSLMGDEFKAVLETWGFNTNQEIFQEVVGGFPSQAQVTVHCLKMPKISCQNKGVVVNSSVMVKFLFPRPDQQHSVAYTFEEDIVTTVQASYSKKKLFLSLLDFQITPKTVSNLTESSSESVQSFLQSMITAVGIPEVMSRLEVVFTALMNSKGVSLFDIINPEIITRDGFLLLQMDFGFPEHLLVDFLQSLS
From the text: The reported procedures for the inhibitory activities of ACAT (Tomoda, H.; Nishida, H.; Masuma, R.; Cao, J.; Okuda, S.; Omura, S. J. Antibiot. 1991, 44, 136-143), CETP (Tomoda, H.; Tabata, N.; Masuma, R.; Si, S.-Y.; Omura, S. J. Antibiot. 1998, 51, 618-623; D. H. Hua et al. Tetrahedron 2003, 59, 4795-4803), L1210 tumor cells (Perchellet, E. M.; Ladesich, J. B.; Magill, M. J.; Chen, Y.; Hua, D. H.; Perchellet, J. P. Anti-Cancer Drugs 1999, 10, 489-504), and APP C99-induced cell death (Jin, L.-W.; Hua, D. H.; Shie, F.-S.; Maezawa, I.; Sopher, B.; Martin, G. M. J. Mol. Neurosci. 2002, 19, 57-61) were followed.
ACAT mediates the esterification of intracellular cholesterol and is believed to play a key role in lipoprotein metabolism and atherogenesis (for a review: Suckling, K. E.; Stange, E. F. J. Lipid Res. 1985, 26, 647-671). […] The inhibition of CETP with these three compounds was then studied. CETP, a hydrophobic neutral glycoprotein, mediates the transfer of cholesteryl ester from high-density lipoprotein to low-density lipoprotein (For a review: Tall, A. R. J. Lipid Res. 1993, 34, 1255-1274). […] The N-(p-nitrophenyl)aspartamide portion of 104 was attached in order to study whether 104 was a substrate of […] (For a review: VIIIa, P.; Kaufmann, S. H.; Earnshaw, W. C. Trends Biochem. Sci. 1997, 22, 388-393). […] Compound 105 is cytotoxic to L1210 tumor cells, with IC50=30 μM. Aggarwal et al., J. Chem. Soc., Perkin Trans I (1999) 3315-3321 is incorporated by reference to the extent not inconsistent with the disclosure herewith.

[2] = tested on: N/N 1003 lens epithelial cells; assay: tissue culture assay: galactitol formation from galactose in lens epithelial cells (GC/MS); assay type: cell-based; settings: for % galactitol: 40 mM galactose; for % galactitol / inhibition at 10 µM: 48 hours; for inhibition at 10 µM: 10 uM inhibitor, 40 mM galactose media, lens epithelial cells, number of trials in parenthesis
Method: The activity of the drugs is tested in various ways, including tissue culture assays and assays testing aldose reductase inhibition. For the tissue culture assay, a lens epithelial cell line is grown in galactose with or without the drug. Cells are tested for polyol accumulation by GC/mass spectrometry. Levels of PKC are tested in homogenized cell pellets or in samples of lens, retina or sciatic nerves from treated patients. Tissue is homogenized and tested for PKCγ levels using Western blots. These procedures are described in more detail below.
The ability of the drugs to inhibit galactitol formation from galactose was also studied in N/N 1003 lens epithelial cells. Two sets of lens cells were grown in media with […] 40 mM galactose. Various concentrations of inhibitors were added initially and the cells were grown for 48 hours. The cells were lysed and galactose and galactitol were extracted out and the concentrations were determined using gas chromatography and mass spectrometry by silylating the crude extract with excess of trimethylsilyl chloride, trimethylsilyl imidazole and pyridine at 70° C. for 1 h.
40 mM galactose media was supplemented with 10 uM inhibitor and fed to lens epithelial cells for 48 hours.

PKC-γ = assay: galactose-fed rats: PKC-γ levels in lens and sciatic nerve (Western blot); assay type: in vivo, Sprague Dawley Rats; settings: 100 mg/Kg body weight per day
Method: In order to test for in vivo effects of ARI's, rats were fed a 40% galactose diet for 9 days and the accumulation of galactitol was measured in lens tissue. This tissue has high aldose reductase activity and the eye has a separate vasculature. Thus, if the ARI works in the lens this is a good indication that the drug works and can penetrate to most tissues.
The specific experimental details follow. […] The rats were given food supplemented with inhibitor in the morning and then given food and water ad libitum the rest of the day. They were kept on a 12-hour on and 12-hour off light cycle. After 9 days, the rats were sacrificed with an overdose of CO2 and then eyes were taken and immediately frozen on dry ice for later polyol and PKC analyses. Experiments on all rats conformed to the ARVO resolution on the Use of Animals in Research.
The lenses were removed from the enucleated eyes and weighed. They were put in 200 μL lysis buffer (50 mM Tris, 100 mM NaCl, M-Per Pierre Zwitterionic detergent, 5 mM NaF, 1 mM Na3VO4, 40 mM β-glycerophosphate, 6 μg/mL chymotrypsin, 10 μM3,4-dichlorocoumarin, 10 μM E-64, 1 μg/mL leupeptin, 1 μg/mL pepstatin A, 1 μg/mL aprotinin, 1 mM PMSF, and 5 mM EDTA (Sigma). The lenses were then ground using a tissue grinder until they were a uniformly white solution. They were then sonicated to make certain all the cells were disrupted. The mixture was then centrifuged for 20 minutes at 0° C. at […]. The supernatant was then analyzed for protein content using […] (Pierce). Equal amounts of protein were loaded and separated on a 10% SDS polyacrylamide gel. The proteins were transferred to nitrocellulose (Midwest Scientific; pore size 0.45 μm). The western was blocked with a 3% milk solution, and then mouse anti-PKC γ (1:5000) or PKC α (1:1000) antisera (Transgenic Laboratories) were applied in a 3% milk solution overnight. […]
The effects of streptozotocin induced diabetes on PKC-γ levels in rat lens have been measured. […]

Compound: CC(CO)[C@H]1CCC2=Cc3c(cc(CC(=O)O)oc3=O)O[C@H]2C1 (some centres unmarked) [Compound 7]
- IC50 values obtained from the enzyme assay (aldose reductase) [1]: No significant inhibition detected

Compound: O=C(O)C(O)Cc1cc2c(c(=O)o1)C=C1CCCCC1O2 (centres unmarked) [Compound 3, 2-Hydroxy-3-{1H,7H-5a,6,8,9-tetrahydro-1-oxopyrano[4,3-b][1]benzopyran-3-yl}-propanoic acid]
- inhibition at 10 µM ([2]; Epithelial cell): < 10%
- IC50 ([1]; read-out: IC50 values obtained from the enzyme assay (aldose reductase)): > 500 µM

Compound: C=C(C)[C@H]1CCC2=Cc3c(cc(CC(=O)OCc4ccccc4)oc3=O)O[C@H]2C1 [Compound 101, Benzyl (5aS,7S)-{7-isopropenyl-1H,7H-5a,6,8,9-tetrahydro-1-oxopyrano[4,3-b][1]benzopyran-3-yl}acetate]
- IC50 (ACAT): 157 µM
- IC50 (CETP): > 100 µM

Compound: C=C(C)[C@H]1CCC2=Cc3c(cc(CC(=O)O)oc3=O)O[C@H]2C1 [Compound 6, {(5aS,7S)-7-Isopropenyl-1H,7H-5a,6,8,9-tetrahydro-1-oxopyrano[4,3-b][1]-benzopyran-3-yl}acetic acid]
- IC50 values obtained from the enzyme assay (aldose reductase) [1]: No significant inhibition detected

Compound: Nc1ncnc2nc[nH]c12 [Adenine, reference compound]
- protection of MC65 cells from death (in words) (MC65 cells): no activity
- EC50 (MC65 cells): > 10000 nM

Compound: Cc1cc2c(c(=O)o1)C=C1CC[C@H](C(C)CNc3ncnc4[nH]cnc34)C[C@@H]1O2 (mixture of isomers) [Compound 107, (5aS,7S)-7-[(1R) and (1S)-2-(N10-Adenyl)-1-methylethyl]-3-methyl-1H,7H-5a,6,8,9-tetrahydro-1-oxopyrano[4,3-b][1]benzopyran]
- protection of MC65 cells from death (in words) (MC65 cells): inactive
- EC50 (MC65 cells): > 3000 nM

Compound: O=C(O)CCc1cc2c(c(=O)o1)C=C1CCCCC1O2 (centres unmarked) [Compound 5a]
- water solubility (water solubility): water soluble

Further lines, with some results ahead:

- IC50 (ACAT): 167 µM
Compound: C=C(C)[C@H]1CCC2=Cc3c(cc(C)oc3=O)O[C@H]2C1 [Compound 108]
- EC50 (MC65 cells): > 10000 nM

- IC50 (ACAT): 150 µM
- IC50 (CETP): 75 µM
Compound: CC(CO)[C@H]1CC[C@@H]2[C@H](C1)Oc1cc(CC(=O)OCc3ccccc3)oc(=O)c1[C@H]2O (mixture of isomers) [Compound 103, Benzyl (5aS,7S,9aS,10S)-{10-hydroxy-7-[(1R) and (1S)-2-hydroxy-1-methylethyl]-1H,7H-5a,6,8,9-tetrahydro-1-oxopyrano[4,3-b][1]benzopyran-3-yl}acetate]

- water solubility (water solubility): insoluble in water
- IC50 ([2]; Epithelial cell): 8 µM
Compound: COc1ccc2c(C(=S)N(C)CC(=O)O)cccc2c1C(F)(F)F [Tolrestat, reference compound]
- % galactitol ([2]; 0.5 uM Tolrestat): 100%
- % galactitol ([2]; 1 uM Tolrestat): 90%
- % galactitol ([2]; 7 uM Tolrestat): 53%
- inhibition at 10 µM ([2]; Epithelial cell): 95 ± 4%
- PKC-γ levels in lens epithelial cells (PKC-γ; 40% galactose feed 9 days, FIG. 2, FIG. 3A): remained near normal
- PKC-γ levels in sciatic nerve cells (PKC-γ; high galactose feed, FIG. 3B): normalized

- IC50 (ACAT): 310 µM
- IC50 (CETP): > 100 µM
Compound: CC(CO)[C@H]1CCC2=Cc3c(cc(CC(=O)OCc4ccccc4)oc3=O)O[C@H]2C1 (mixture of isomers) [Compound 102, Benzyl (5aS,7S)-{7-[(1R)- and (1S)-2-hydroxy-1-methylethyl]-1H,7H-5a,6,8,9-tetrahydro-1-oxopyrano[4,3-b][1]benzopyran-3-yl}acetate]

- IC50 (ACAT): > 500 µM
- IC50 (CETP): > 250 µM
Compound: Cc1cc2c(c(=O)o1)C=C1CC[C@H](C(C)Cn3cnc(N)c4ncnc3-4)C[C@@H]1O2 (mixture of isomers) [Compound 106, (5aS,7S)-7-[(1R) and (1S)-2-(N-3-adenyl)-1-methylethyl]-3-methyl-1H,7H-5a,6,8,9-tetrahydro-1-oxopyrano[4,3-b][1]benzopyran]
- protection of MC65 cells from death (in words) (MC65 cells): protected from death
- EC50 (MC65 cells): 150 nM
